ChEMBL document CHEMBL3885881, “DrugMatrix”

Organism: Rattus norvegicus
Experiment: DrugMatrix - Regimen: Daily Repeat
Assay type: toxicity, organism-based, Sprague-Dawley
Set-up: regimen Daily Repeat, gender Male, age 6-8 weeks
Settings: in vivo, po, route oral GAVAGE, […]; for ABSOLUTE BASOPHIL / BASOPHIL / EOSINOPHIL / NUCLEATED RED BLOOD CELLS / MONOCYTE / ABSOLUTE EOSINOPHIL / ABSOLUTE LYMPHOCYTE / ABSOLUTE MONOCYTE / ABSOLUTE SEGMENTED NEUTROPHIL / ERYTHROCYTE COUNT / HEMATOCRIT / HEMOGLOBIN / LEUKOCYTE COUNT / LYMPHOCYTE / MEAN CORPUSCULAR HEMOGLOBIN / MEAN CORPUSCULAR HEMOGLOBIN CONCENTRATION / MEAN CORPUSCULAR VOLUME / NEUTROPHIL / PLATELET COUNT: tissue Blood; for TOTAL BILIRUBIN / URIC ACID / ALANINE AMINOTRANSFERASE / ALBUMIN / ALKALINE PHOSPHATASE / ASPARTATE AMINOTRANSFERASE / BLOOD UREA NITROGEN / CARBON DIOXIDE / CHLORIDE / CHOLESTEROL / CREATINE PHOSPHOKINASE / CREATININE / GLUCOSE / LACTATE DEHYDROGENASE / LIPASE / PHOSPHORUS / POTASSIUM / SODIUM / TOTAL PROTEIN: tissue Plasma
[1] = 0 mg/kg, 72 h, dose level Control, time 3 day
[2] = 0 mg/kg, 120 h, dose level Control, time 5 day
[3] = 10 mg/kg, 72 h, dose level M1, time 3 day
[4] = 10 mg/kg, 120 h, dose level M1, time 5 day
[5] = 650 mg/kg, 72 h, dose level High, time 3 day
[6] = 650 mg/kg, 120 h, dose level High, time 5 day
[7] = 72 h, dose 6.5 mg/Kg, dose level Low, time 3 day
[8] = 120 h, dose 6.5 mg/Kg, dose level Low, time 5 day

O=C(c1ccc(OCCN2CCCCC2)cc1)c1c(-c2ccc(O)cc2)sc2cc(O)ccc12 [RALOXIFENE]
ABSOLUTE BASOPHIL [1]: 0 CELLS/uL
BASOPHIL [1]: 0%
EOSINOPHIL [1]: 0.17%
NUCLEATED RED BLOOD CELLS [1]: 0 /100WBC
ABSOLUTE BASOPHIL [2]: 0 CELLS/uL
BASOPHIL [2]: 0%
MONOCYTE [2]: 1.17%
TOTAL BILIRUBIN [2]: 0.1 mg/dL
URIC ACID [2]: 0.52 mg/dL
ABSOLUTE BASOPHIL [3]: 0 CELLS/uL
ABSOLUTE EOSINOPHIL [3]: 29.33 CELLS/uL
ABSOLUTE LYMPHOCYTE [3]: 7440 CELLS/uL
ABSOLUTE MONOCYTE [3]: 116 CELLS/uL
ABSOLUTE SEGMENTED NEUTROPHIL [3]: 681.33 CELLS/uL
BASOPHIL [3]: 0%
EOSINOPHIL [3]: 0.33%
ERYTHROCYTE COUNT [3]: 5.44 x10E6/uL
HEMATOCRIT [3]: 34.47%
HEMOGLOBIN [3]: 13.3 G/DL
LEUKOCYTE COUNT [3]: 8.27 x10E3/uL
LYMPHOCYTE [3]: 90.33%
MEAN CORPUSCULAR HEMOGLOBIN [3]: 24.53 pg
MEAN CORPUSCULAR HEMOGLOBIN CONCENTRATION [3]: 38.6 G/DL
MEAN CORPUSCULAR VOLUME [3]: 63.53 fL
MONOCYTE [3]: 1.33%
NEUTROPHIL [3]: 8%
NUCLEATED RED BLOOD CELLS [3]: 0.33 /100WBC
PLATELET COUNT [3]: 1223 x10E3/uL
ALANINE AMINOTRANSFERASE [3]: 53.67 u/L
ALBUMIN [3]: 4.43 G/DL
ALKALINE PHOSPHATASE [3]: 398.33 u/L
ASPARTATE AMINOTRANSFERASE [3]: 90.67 u/L
BLOOD UREA NITROGEN [3]: 10 mg/dL
CARBON DIOXIDE [3]: 31.67 mmol/L
CHLORIDE [3]: 101.67 MEQ/L
CHOLESTEROL [3]: 52.67 mg/dL
CREATINE PHOSPHOKINASE [3]: 300.33 u/L
CREATININE [3]: 0.24 mg/dL
GLUCOSE [3]: 151.33 mg/dL
LACTATE DEHYDROGENASE [3]: 123 u/L
LIPASE [3]: 9.33 u/L
PHOSPHORUS [3]: 10.93 mg/dL
POTASSIUM [3]: 5.67 MEQ/L
SODIUM [3]: 147.7 MEQ/L
TOTAL BILIRUBIN [3]: 0.13 mg/dL
TOTAL PROTEIN [3]: 6.5 G/DL
URIC ACID [3]: 0.87 mg/dL
ABSOLUTE BASOPHIL [4]: 0 CELLS/uL
ABSOLUTE EOSINOPHIL [4]: 34 CELLS/uL
ABSOLUTE LYMPHOCYTE [4]: 8594.67 CELLS/uL
ABSOLUTE MONOCYTE [4]: 97 CELLS/uL
ABSOLUTE SEGMENTED NEUTROPHIL [4]: 974.33 CELLS/uL
BASOPHIL [4]: 0%
EOSINOPHIL [4]: 0.33%
ERYTHROCYTE COUNT [4]: 5.62 x10E6/uL
HEMATOCRIT [4]: 34.3%
HEMOGLOBIN [4]: 13.33 G/DL
LEUKOCYTE COUNT [4]: 9.7 x10E3/uL
LYMPHOCYTE [4]: 89%
MEAN CORPUSCULAR HEMOGLOBIN [4]: 23.8 pg
MEAN CORPUSCULAR HEMOGLOBIN CONCENTRATION [4]: 38.93 G/DL
MEAN CORPUSCULAR VOLUME [4]: 61.13 fL
MONOCYTE [4]: 1%
NEUTROPHIL [4]: 9.67%
NUCLEATED RED BLOOD CELLS [4]: 0 /100WBC
PLATELET COUNT [4]: 1211.33 x10E3/uL
ALANINE AMINOTRANSFERASE [4]: 42.33 u/L
ALBUMIN [4]: 4.5 G/DL
ALKALINE PHOSPHATASE [4]: 301.33 u/L
ASPARTATE AMINOTRANSFERASE [4]: 77.67 u/L
BLOOD UREA NITROGEN [4]: 9 mg/dL
CARBON DIOXIDE [4]: 28.67 mmol/L
CHLORIDE [4]: 102 MEQ/L
CHOLESTEROL [4]: 50 mg/dL
CREATINE PHOSPHOKINASE [4]: 198.67 u/L
CREATININE [4]: 0.33 mg/dL
GLUCOSE [4]: 168.33 mg/dL
LACTATE DEHYDROGENASE [4]: 130.67 u/L
LIPASE [4]: 8.33 u/L
PHOSPHORUS [4]: 12.1 mg/dL
POTASSIUM [4]: 4.86 MEQ/L
SODIUM [4]: 146.9 MEQ/L
TOTAL BILIRUBIN [4]: 0.1 mg/dL
TOTAL PROTEIN [4]: 6.33 G/DL
URIC ACID [4]: 0.77 mg/dL
ABSOLUTE BASOPHIL [5]: 0 CELLS/uL
BASOPHIL [5]: 0%
NUCLEATED RED BLOOD CELLS [5]: 0 /100WBC
LIPASE [5]: 10.33 u/L
URIC ACID [5]: 0.67 mg/dL
ABSOLUTE BASOPHIL [6]: 0 CELLS/uL
BASOPHIL [6]: 0%
NUCLEATED RED BLOOD CELLS [6]: 0 /100WBC
ABSOLUTE BASOPHIL [7]: 0 CELLS/uL
ABSOLUTE EOSINOPHIL [7]: 59.33 CELLS/uL
ABSOLUTE LYMPHOCYTE [7]: 5494.67 CELLS/uL
ABSOLUTE MONOCYTE [7]: 60.33 CELLS/uL
ABSOLUTE SEGMENTED NEUTROPHIL [7]: 452.33 CELLS/uL
BASOPHIL [7]: 0%
EOSINOPHIL [7]: 0.67%
ERYTHROCYTE COUNT [7]: 5.5 x10E6/uL
HEMATOCRIT [7]: 35.2%
HEMOGLOBIN [7]: 13.7 G/DL
LEUKOCYTE COUNT [7]: 6.07 x10E3/uL
LYMPHOCYTE [7]: 90.33%
MEAN CORPUSCULAR HEMOGLOBIN [7]: 24.87 pg
MEAN CORPUSCULAR HEMOGLOBIN CONCENTRATION [7]: 38.93 G/DL
MEAN CORPUSCULAR VOLUME [7]: 63.93 fL
MONOCYTE [7]: 1.33%
NEUTROPHIL [7]: 7.67%
NUCLEATED RED BLOOD CELLS [7]: 0.67 /100WBC
PLATELET COUNT [7]: 1046.33 x10E3/uL
ALANINE AMINOTRANSFERASE [7]: 63 u/L
ALBUMIN [7]: 4.13 G/DL
ALKALINE PHOSPHATASE [7]: 536.33 u/L
ASPARTATE AMINOTRANSFERASE [7]: 92 u/L
BLOOD UREA NITROGEN [7]: 8.67 mg/dL
CARBON DIOXIDE [7]: 29.67 mmol/L
CHLORIDE [7]: 98.33 MEQ/L
CHOLESTEROL [7]: 41 mg/dL
CREATINE PHOSPHOKINASE [7]: 405 u/L
CREATININE [7]: 0.12 mg/dL
GLUCOSE [7]: 157 mg/dL
LACTATE DEHYDROGENASE [7]: 73.33 u/L
LIPASE [7]: 9.67 u/L
PHOSPHORUS [7]: 10.5 mg/dL
POTASSIUM [7]: 5.24 MEQ/L
SODIUM [7]: 143.33 MEQ/L
TOTAL BILIRUBIN [7]: 0.13 mg/dL
TOTAL PROTEIN [7]: 6.07 G/DL
URIC ACID [7]: 0.63 mg/dL
ABSOLUTE BASOPHIL [8]: 0 CELLS/uL
ABSOLUTE EOSINOPHIL [8]: 0 CELLS/uL
ABSOLUTE LYMPHOCYTE [8]: 6955.67 CELLS/uL
ABSOLUTE MONOCYTE [8]: 124.33 CELLS/uL
ABSOLUTE SEGMENTED NEUTROPHIL [8]: 286.67 CELLS/uL
BASOPHIL [8]: 0%
EOSINOPHIL [8]: 0%
ERYTHROCYTE COUNT [8]: 5.53 x10E6/uL
HEMATOCRIT [8]: 34.77%
HEMOGLOBIN [8]: 13.37 G/DL
LEUKOCYTE COUNT [8]: 7.37 x10E3/uL
LYMPHOCYTE [8]: 94.33%
MEAN CORPUSCULAR HEMOGLOBIN [8]: 24.17 pg
MEAN CORPUSCULAR HEMOGLOBIN CONCENTRATION [8]: 38.47 G/DL
MEAN CORPUSCULAR VOLUME [8]: 62.87 fL
MONOCYTE [8]: 1.67%
NEUTROPHIL [8]: 4%
NUCLEATED RED BLOOD CELLS [8]: 0 /100WBC
PLATELET COUNT [8]: 1226.67 x10E3/uL
ALANINE AMINOTRANSFERASE [8]: 57 u/L
ALBUMIN [8]: 4.1 G/DL
ALKALINE PHOSPHATASE [8]: 411.67 u/L
ASPARTATE AMINOTRANSFERASE [8]: 105.33 u/L
BLOOD UREA NITROGEN [8]: 10.33 mg/dL
CARBON DIOXIDE [8]: 28.33 mmol/L
CHLORIDE [8]: 99.33 MEQ/L
CHOLESTEROL [8]: 26 mg/dL
CREATINE PHOSPHOKINASE [8]: 332.33 u/L
CREATININE [8]: 0.19 mg/dL
GLUCOSE [8]: 169 mg/dL
LACTATE DEHYDROGENASE [8]: 99.67 u/L
LIPASE [8]: 30 u/L
PHOSPHORUS [8]: 11.23 mg/dL
POTASSIUM [8]: 5.86 MEQ/L
SODIUM [8]: 144.43 MEQ/L
TOTAL BILIRUBIN [8]: 0.1 mg/dL
TOTAL PROTEIN [8]: 5.87 G/DL
URIC ACID [8]: 1 mg/dL
